The data set relates to human appendix. The data set is described as follows: Clinical data on delivery and concentration of diatrizoate iodine in the appendix. Format: in vivo. To be noted: following oral administration. As for the experimental part:
The bioavailability and release profile of diatrizoate appear dependent on both concentration and pH, which explains why
Critical to efficacy of the composition are ‘gasless’ enteric conditions and neutralization of the harsh acidity of gastric secretions that appear to inhibit the transit of intact diatrizoate to the appendix. Clinical trials show optimal appendiceal visualization at a critical concentration of 2.8 mg % iodine; however 5 mg % is considered optimal for ideal image contrast.

`CC(=O)Nc1c(I)c(NC(C)=O)c(I)c(C(=O)O)c1I` [diatrizoate, 1-deoxy-1-(methylamino)-D-glucitol-3,5-diacetamido-2,4,6-triiodobenzoate]: the “time until organically bound iodine is delivered and concentrated in the human appendix” value is on record as “approximately 50 minutes”.

For the origin of these results see patent US7378081B2, “Composition and method for direct visualization of the human appendix” (Vincon Research Enterprises, LLC, priority 2003, dated 2008).
